Values joined by “and” are separate entries in the source; they are usually repeats but may differ in a detail not shown here. Identical values can stand only once. Where a SMILES comes first, the peptide text is derived from it. [ ]: non-standard residue; d: D form. Hyp = O=C(O)[C@@H]1C[C@@H](O)CN1
System: IL-2
Experiment: Example 9 Luminex, LPS hPBMCs: IL-2
Format: cell-based, human
Settings: for IL-2 Concentration: dilution 2.0
Description: Treatment Human PBMCs were pretreated with YY-101, YDE-011 and YDE-043 or reference compound; Xiidra® at various concentration (ranging from 1 nM to 100 uM) for 2 h before stimulation. An equal volume of 0.5% DMSO was used as a vehicle control. Then, the cells were treated with LPS at 5 ug/ml. The supernatants from treated cells were harvested at 24 h and placed in a 96 well for Luminex cytokine & chemokine profiling using a Luminex 200 multiplex assay (Luminex; R&D system, USA).
The main study arm with triplicate wells per group in a 24-well plate: • 1. Blank • 2. PBMC: 0.5% DMSO • 3. PBMC+LPS (5 ug/ml) • 4. PBMC+YY-101 100 uM • 5. PBMC+YY-101 10 uM • 6. PBMC+YY-101 1 uM • 7. PBMC+YY-101 0.1 uM • 8. PBMC+YY-101 0.01 uM • 9. PBMC+LPS (5 ug/ml)+Xiidra®100 uM • 10. PBMC+LPS (5 ug/ml)+Xiidra® 10 uM • 11. PBMC+LPS (5 ug/ml)+Xiidra® 1 uM • 12. PBMC+LPS (5 ug/ml)+Xiidra®0.1 uM • 13. PBMC+LPS (5 ug/ml)+Xiidra®0.01 uM • 14. PBMC+LPS (5 ug/ml)+Xiidra®0.001 uM • 15. PBMC+LPS (5 ug/ml)+YY-101 100 uM • 16. PBMC+LPS (5 ug/ml)+YY-101 10 uM • 17. PBMC+LPS (5 ug/ml)+YY-101 1 uM • 18. PBMC+LPS (5 ug/ml)+YY-101 0.1 uM • 19. PBMC+LPS (5 ug/ml)+YY-101 0.01 uM • 20. PBMC+LPS (5 ug/ml)+YY-101 0.001 uM • 21. PBMC+LPS (5 ug/ml)+YDE-011 100 uM • 22. PBMC+LPS (5 ug/ml)+YDE-011 10 uM • 23. PBMC+LPS (5 ug/ml)+YDE-011 1 uM • 24. PBMC+LPS (5 ug/ml)+YDE-011 0.1 uM • 25. PBMC+LPS (5 ug/ml)+YDE-011 0.01 uM • 26. PBMC+LPS (5 ug/ml)+YDE-011 0.001 uM • 27. PBMC+LPS (5 ug/ml)+YDE-043 100 uM • 28. PBMC+LPS (5 ug/ml)+YDE-043 10 uM • 29. PBMC+LPS (5 ug/ml)+YDE-043 1 uM • 30. PBMC+LPS (5 ug/ml)+YDE-043 0.1 uM • 31. PBMC+LPS (5 ug/ml)+YDE-043 0.01 uM • 32. PBMC+LPS (5 ug/ml)+YDE-043 0.001 uM
Multiplex assay was used to measure 30 cytokines and chemokines. The 1:2, 1:10 and 1:200 diluted cell supernatant and serial dilution of the standard were dispensed into a 96 well plate at 50 ul/well. Then, the pre-mixed cocktail of antibody-coated magnetic beads was dispensed at 50 ul/well and incubated at room temperature for 2 h in a horizontal orbital microplate shaker at 800±500 rpm. The beads were washed using a magnetic device to prevent loss. The biotin-antibody was dispensed in 50 ul of each well and incubated at room temperature for 1 h in a shaker at 800±500 rpm. After washing, streptavidin-PE was added at 50 ul/well and incubated at room temperature for 30 min in a shaker under the same conditions. Finally, after washing, wash buffer (100 ul/well) was added to the plate and incubated in a shaker for 2 min. The Luminex™ 200 setting were set according to the manufacturer's protocol. The data was calculated with a standard five-parameter logistic nonlinear regression analysis of the data (xPonent software 4.2, USA). The levels of cytokine/chemokine are normalized to the live cell counts (1×10^5 cells/mL) and presented as concentrations per mL (pg/mL or ng/mL).

[1] = PBMC + LPS(5 ug/ml) + test article 0.001 uM, Mean
[2] = PBMC + LPS(5 ug/ml) + test article 0.001 uM, single replicates
[3] = PBMC + LPS(5 ug/ml) + test article 0.01 uM, Mean
[4] = PBMC + LPS(5 ug/ml) + test article 0.01 uM, single replicates
[5] = PBMC + LPS(5 ug/ml) + test article 0.1 uM, Mean
[6] = PBMC + LPS(5 ug/ml) + test article 0.1 uM, single replicates
[7] = PBMC + LPS(5 ug/ml) + test article 1 uM, Mean
[8] = PBMC + LPS(5 ug/ml) + test article 1 uM, single replicates
[9] = PBMC + LPS(5 ug/ml) + test article 10 uM, Mean
[10] = PBMC + LPS(5 ug/ml) + test article 10 uM, single replicates
[11] = PBMC + LPS(5 ug/ml) + test article 100 uM, Mean
[12] = PBMC + LPS(5 ug/ml) + test article 100 uM, single replicates
[13] = PBMC + test article 0.01 uM, no LPS, Mean
[14] = PBMC + test article 0.01 uM, no LPS, single replicates
[15] = PBMC + test article 0.1 uM, no LPS, Mean
[16] = PBMC + test article 0.1 uM, no LPS, single replicates
[17] = PBMC + test article 1 uM, no LPS, Mean
[18] = PBMC + test article 1 uM, no LPS, single replicates
[19] = PBMC + test article 10 uM, no LPS, Mean
[20] = PBMC + test article 10 uM, no LPS, single replicates
[21] = PBMC + test article 100 uM, no LPS, Mean
[22] = PBMC + test article 100 uM, no LPS, single replicates

With `CC(C)C[C@H](NC(=O)CNC(=O)[C@H](CC(=O)O)NC(=O)[C@H](CCC(N)=O)NC(=O)CNC(=O)[C@@H]1C[C@@H](O)CN1)C(=O)N[C@@H](C)C(=O)NCC(=O)N1CCC[C@H]1C(=O)N[C@@H](CCCCN)C(=O)O` [YY-101] (H-[Hyp]GQDGLAGPK-OH; N-terminus and C-terminus assumed) the IL-2 conc/live cell [1] was 0.9 pg/10^5, the “MFI, Bead name: IL-2” value [1] was 16.3 and the “IL-2 Concentration” value [1] was 5.7 pg/mL. The “IL-2 Concentration” value [2] was 3.4 pg/mL and 7.6 pg/mL and 6.2 pg/mL, the IL-2 conc/live cell [2] was 0.6 pg/10^5 and 1.1 pg/10^5 and 0.9 pg/10^5 and the “MFI, Bead name: IL-2” value [2] was 13.0 and 19.0 and 17.0. For the same compound, the IL-2 conc/live cell [3] was 1.4 pg/10^5, the “MFI, Bead name: IL-2” value [3] was 20.3 and the “IL-2 Concentration” value [3] was 8.6 pg/mL. For the same compound, the “IL-2 Concentration” value [4] was 6.9 pg/ml (2×) and 11.8 pg/ml, the IL-2 conc/live cell [4] was 1.1 pg/10^5 (2×) and 2.0 pg/10^5 and the “MFI, Bead name: IL-2” value [4] was 18.0 (2×) and 25.0. For the same compound, the IL-2 conc/live cell [5] was 0.0 pg/10^5, the “MFI, Bead name: IL-2” value [5] was 6.3 and the IL-2 conc/live cell [6] was 0.0 pg/10^5. For the same compound, the “MFI, Bead name: IL-2” value [6] was 8.0 (2×) and 3.0, the IL-2 conc/live cell [7] was 0.6 pg/10^5 and the “MFI, Bead name: IL-2” value [7] was 13.7. For the same compound, the “IL-2 Concentration” value [7] was 3.8 pg/mL, the “IL-2 Concentration” value [8] was 5.2 pg/mL and 3.7 pg/mL and 2.6 pg/mL and the IL-2 conc/live cell [8] was 0.8 pg/10^5 and 0.5 pg/10^5 and 0.4 pg/10^5. For the same compound, the “MFI, Bead name: IL-2” value [8] was 15.5 and 13.5 and 12.0, the IL-2 conc/live cell [9] was 0.8 pg/10^5 and the “MFI, Bead name: IL-2” value [9] was 15.7. For the same compound, the “IL-2 Concentration” value [9] was 5.3 pg/mL, the “IL-2 Concentration” value [10] was 8.0 pg/mL and 4.1 pg/mL and 3.7 pg/mL and the IL-2 conc/live cell [10] was 1.3 pg/10^5 and 0.6 pg/10^5 and 0.5 pg/10^5. For the same compound, the “MFI, Bead name: IL-2” value [10] was 19.5 and 14.0 and 13.5, the IL-2 conc/live cell [11] was 0.1 pg/10^5 and the “MFI, Bead name: IL-2” value [11] was 9.0. For the same compound, the “IL-2 Concentration” value [11] was 1.1 pg/mL, the “IL-2 Concentration” value [12] was 1.9 pg/mL and 0.4 pg/mL and the IL-2 conc/live cell [12] was 0.3 pg/10^5 and 0.1 pg/10^5 and 0.0 pg/10^5. For the same compound, the “MFI, Bead name: IL-2” value [12] was 11.0 and 9.0 and 7.0, the IL-2 conc/live cell [13] was 11.5 pg/10^5 and the “MFI, Bead name: IL-2” value [13] was 93.3. The “IL-2 Concentration” value [13] was 57.4 pg/mL, the “IL-2 Concentration” value [14] was 56.9 pg/mL and 57.9 pg/mL and the IL-2 conc/live cell [14] was 10.9 pg/10^5 and 12.1 pg/10^5. The “MFI, Bead name: IL-2” value [14] was 92.5 and 94.0, the IL-2 conc/live cell [15] was 11.5 pg/10^5 and the “MFI, Bead name: IL-2” value [15] was 96.3. The “IL-2 Concentration” value [15] was 59.3 pg/mL, the “IL-2 Concentration” value [16] was 45.4 pg/mL and 73.2 pg/mL and the IL-2 conc/live cell [16] was 10.3 pg/10^5 and 12.6 pg/10^5. For the same compound, the “MFI, Bead name: IL-2” value [16] was 75.0 and 117.5, the IL-2 conc/live cell [17] was 11.4 pg/10^5 and the “MFI, Bead name: IL-2” value [17] was 101.5. For the same compound, the “IL-2 Concentration” value [17] was 62.8 pg/mL, the “IL-2 Concentration” value [18] was 59.8 pg/mL and 65.7 pg/mL and the IL-2 conc/live cell [18] was 10.9 pg/10^5 and 11.9 pg/10^5. The “MFI, Bead name: IL-2” value [18] was 97.0 and 106.0, the IL-2 conc/live cell [19] was 11.3 pg/10^5 and the “MFI, Bead name: IL-2” value [19] was 113.5. For the same compound, the “IL-2 Concentration” value [19] was 70.6 pg/mL, the “IL-2 Concentration” value [20] was 69.6 pg/mL and 71.5 pg/mL and the IL-2 conc/live cell [20] was 10.9 pg/10^5 and 11.7 pg/10^5. For the same compound, the “MFI, Bead name: IL-2” value [20] was 112.0 and 115.0, the IL-2 conc/live cell [21] was 2.2 pg/10^5 and the “MFI, Bead name: IL-2” value [21] was 29.0. For the same compound, the “IL-2 Concentration” value [21] was 14.6 pg/mL, the “IL-2 Concentration” value [22] was 13.2 pg/mL and 16.0 pg/mL and the IL-2 conc/live cell [22] was 2.1 pg/10^5 and 2.3 pg/10^5. For the same compound, the “MFI, Bead name: IL-2” value [22] was 27.0 and 31.0.
